Marks after values point to notes of the source that are not given here.
Test system: Fibrillin 1
Assay: Fibrillin 1 expression in primary human dermal fibroblasts by immunofluorescence
Assay type: cell-based
Settings: HDF cells, 10 ppm peptide, cultured 5 days, immunofluorescence fibre density
Procedure: The synergistic activity of the tetrapeptides of the present invention were assessed to determine the expression of dermal extracellular protein Fibrillin 1 using immunofluorescence.
Primary Human dermal fibroblast (HDFs) cells were purchased from Promo Cell and came from a donor. Cells were grown in wells of 96-well black walled, clear bottomed, plates (as purchased from Pierce, Thermo Fisher). Cells were cultured in Human Dermal Fibroblast media (PromoCell) supplemented with Basic Fibroblast Growth Factor (recombinant human), 1 ng/ml and Insulin 5 μg/mL Cells were cultured for 5 days in the presence of the tetrapeptides combination of the present invention, changing media and peptides every 48 hours, followed by immunofluorescence assessment. At the time of treatment cells were at passage 3-4. After 5 days the media was discarded, and cells fixed with methanol. […]
The antibody binding to Fibrillin 1 fibres was visualised using a Nikon Eclipse 100 microscope fluorescence setting using an excitation lens for fluorescein isothiocyanate (FITC). […] Image-J software was used to quantify the Fibrillin 1 fibre abundance and coverage in each image using a threshold of 235 measuring the fibre density.
Results are expressed as an average percentage increase in fibrillin abundance compared to untreated control.

| Substance | Fibrillin 1 (average percentage increase in fibrillin abundance compared to untreated control) |
| --- | --- |
| Pal-LSVD-OH | +185%^a |
| Pal-GPKG-OH | +131%^a |
